Columns and labels:
[1] = test system: NCM460; test: Cytotoxicity in human NCM460 cells assessed as reduction in cell viability incubated for 3 days by MTT assay; type: cell-based
[2] = test system: MCF7; test: Cytotoxicity in human MCF7 cells assessed as reduction in cell viability incubated for 3 days by MTT assay; type: functional, cell-based
[3] = test system: HepG2; test: Cytotoxicity in human HepG2 cells assessed as reduction in cell viability incubated for 3 days by MTT assay; type: functional, cell-based
[4] = test system: A549; test: Cytotoxicity in human A549 cells assessed as reduction in cell viability incubated for 3 days by MTT assay; type: functional, cell-based
[5] = test system: HeLa; test: Cytotoxicity in human HeLa cells assessed as reduction in cell viability incubated for 3 days by MTT assay; type: functional, cell-based
[6] = Homo sapiens, HeLa, 72 h, read-out: IC50

SMILES	IC50 ([1]; ncm460)	IC50 ([2]; mcf7)	IC50 ([3]; hepg2)	IC50 ([4]; a549)	IC50 ([5]; hela)	IC50 ([1]; Homo sapiens, NCM460, 72 h, read-out: IC50) [nM]	IC50 ([2]; Homo sapiens, MCF7, 72 h, read-out: IC50) [nM]	IC50 ([3]; Homo sapiens, HepG2, 72 h, read-out: IC50) [nM]	IC50 ([4]; Homo sapiens, A549, 72 h, read-out: IC50) [nM]	IC50 [5, 6] [nM]
C=CC(C)(C)[C@]1(CC2(O)NC(=O)C3CCCN3C2=O)C(=O)Nc2cc3c(cc21)C=CC(C)(C)O3 (stereo not given in full)	Non-Toxic	Not Active	Not Active	Not Active	Not Active					
C=CC(C)(C)[C@@]12Nc3cc4c(cc3[C@]1(O)C[C@]1(O)C(=O)N3CCC[C@H]3C(=O)N21)C=CC(C)(C)O4	Non-Toxic	Not Active	Not Active	Not Active	Not Active					
CC(=O)O[C@H]1C(=O)[C@@]2(C)[C@H]([C@H](OC(=O)c3ccccc3)[C@]3(O)C[C@H](OC(=O)[C@H](O)[C@@H](NC(=O)c4ccccc4)c4ccccc4)C(C)=C1C3(C)C)[C@]1(OC(C)=O)CO[C@@H]1C[C@@H]2O [PACLITAXEL]						< 8	< 8	< 8	< 8	< 8
C=CC(C)(C)[C@@]12Nc3cc4c(cc3[C@]1(O)C[C@H]1C(=O)N3CCC[C@H]3C(=O)N12)C=CC(C)(C)O4	Non-Toxic	Not Active	Not Active	Not Active	Not Active					
C=CC(C)(C)c1[nH]c2cc3c(cc2c1C=O)C=CC(C)(C)O3	Non-Toxic	Not Active	Not Active	Not Active						6400
C=CC(C)(C)[C@]1(C[C@@H]2NC(=O)[C@@H]3CCCN3C2=O)C(=O)Nc2cc3c(cc21)C=CC(C)(C)O3	Non-Toxic	Not Active	Not Active	Not Active	Not Active					
C=CC(C)(C)[C@@]1(C[C@@H]2NC(=O)[C@@H]3CCCN3C2=O)C(=O)Nc2cc3c(cc21)C=CC(C)(C)O3	Non-Toxic	Not Active	Not Active	Not Active	Not Active					
C=CC(C)(C)[C@@]12Nc3cc4c(cc3[C@]1(O)C[C@]1(NC(=O)[C@H]3CCCN3C1=O)O2)C=CC(C)(C)O4	Non-Toxic	Not Active	Not Active	Not Active						7300
C=CC(C)(C)[C@]1(CC2NC(=O)C3(O)CCCN3C2=O)C(=O)Nc2cc3c(cc21)C=CC(C)(C)O3 (stereo not given in full)	Non-Toxic	Not Active	Not Active	Not Active	Not Active					
C=CC(C)(C)[C@]1(C[C@]2(OC)NC(=O)[C@@H]3CCCN3C2=O)C(=O)Nc2cc3c(cc21)C=CC(C)(C)O3	Non-Toxic	Not Active	Not Active	Not Active	Not Active					
